Like-named read-outs stand apart in the source and are kept apart here.
Assays:
Assay type in all cases: cell-based, Pseudomonas aeruginosa
[1] = system: RhlR activity, P. aeruginosa PAO1/prhII-LVAgfp; test: Rhl QS reporter assay (GFP fluorescence); conditions: for RhlR activity: at 1-10× IC50 values for biofilm inhibition; for inhibition of Rhl-QS system: fluorescence dose curves, 12 and 24 h
Experimental: (§1) As introduced above, the role of QS in biofilm formation is well documented and therefore the abilities of 7 and 21 to inhibit QS in P. aeruginosa were evaluated. For this purpose, two wild-type P. aeruginosa QS reporter strains were prepared that contain the plasmids plasI-LVAgfp and prhII-LVAgfp. (see: The Examples) These strains report the activity of two intracellular QS receptors in P. aeruginosa (LasR and RhlR) by the production of green fluorescent protein (gfp), allowing for LasR and RhlR activities, and thus QS levels, to be quantified by fluorescence. […] Studies of related 2-ABI derivatives have shown that this class of molecules is bacterial cell permeable, allowing us to surmise that 7 and 21 could act on the Las and Rhl systems intracellularly. […] The precise targets of 7 and 21 that result in QS disruption are not yet known.
(§2) To evaluate the activity of compounds 7 and 21 on QS in P. aeruginosa, we prepared two P. aeruginosa QS reporter strains: PAO1/plasI-LVAgfp and PAO1/prhII-LVAgfp. These strains contain the reporter plasmids plasI-LVAgfp and prhII-LVAgfp, respectively, which contain the laslI or rhII promoter sequences fused to LVAgfp. Binding of activated LasR or RhlR to these promoters induces GFP production, which can be quantified by fluorescence and is proportional to the level of LasR or RhlR activation. LVAgfp is an unstable form of GFP with an estimated half-life of 40-60 min, which allows for a more real-time analysis of gene expression (wild-type GFP has a half-life of greater than 1 day). Further, this specific GFP is the variant GFPmut3b that has a shifted excitation maximum near 501 nm (wild-type GFP has an excitation maximum near 395 nm); emission maximum is similar to wild-type GFP at 511 nm (wild-type GFP has emission maximum near 508 nm). Utilizing this GFP variant is key to detection over native fluorescent pigments that are produced in P. aeruginosa and excite near 400 nm and emit near 500 nm. Preparation and analysis of the PAO1/plasI-LVAgfp and PAO1/prhII-LVAgfp reporters are outlined below.
(§3) Compounds 7 and 21 were evaluated for their ability to modulate the Las and Rhl systems using the P. aeruginosa PAO1/plasI-LVAgfp and PAO1/prhII-LVAgfp reporters. We used the same exact setup as the static biofilm assay in 96-well microtiter plates for P. aeruginosa with the exception that freezer stocks were streaked on LB/agar with 300 μg/mL Carb. Microtiter plates were prepared similar to dose-response analysis such that final well concentrations upon inoculum addition ranged from 10^x μM where x=3.5, 3, 2.5, 2, 1.5, 1, 0, −1, or −2. Measurements of FL500/540 and OD600 were made at 12 and 24 h, and after 24 h the samples were evaluated for biofilm formation using the CV procedure. […]

[2] = system: LasR activity, P. aeruginosa PAO1/plasI-LVAgfp; test: Las QS reporter assay (GFP fluorescence); conditions: for LasR activity: at 1-10× IC50 values for biofilm inhibition; for inhibition of Las-QS system: fluorescence dose curves, 12 and 24 h
Experimental: as §1, §2, §3

[3] = system: P. aeruginosa PAO1 biofilm; test: crystal violet static biofilm inhibition assay; conditions: for IC50: Pseudomonas aeruginosa, PAO1
Experimental: Stilbenes 1, 2, and 4a-b were tested for inhibition of biofilm formation in a wild-type P. aeruginosa strain (PAO1) at 500 μM using standard static biofilm growth assays.
Biofilms were grown in a modified M9 minimal media in 96-well microtiter plates, and crystal violet staining of the surface-associated biomass was used to quantify biofilm growth at 12 and 24 h (see The Examples).
A modified version of the widely used crystal violet (CV) microtiter plate biofilm assay, first described by Christensen et al. and later popularized by O'Toole et al., [57] was used in this study and is described in detail below.
Compounds to be evaluated for biofilm modulatory activity were added to the assay microtiter plates by means of a “solvent evaporation” delivery. This delivery method involves preparation of compound stock solutions, addition of stocks to microtiter plates at appropriate volumes to obtain target molar quantities per well, evaporation of the solvent, and re-solubilization of the compound in the final assay medium upon inoculum addition. This delivery method was adopted to avoid the biofilm inhibitory effects observed with an “organic solvent-to-solution” delivery method (e.g., DMSO-to-media; data not shown), which is more commonly done in small molecule screens. EtOH was chosen as the solvent for solvent evaporation delivery in this study based on the chemical resistance limitations of polystyrene microtiter plates. Prior to each experiment, EtOH stock solutions of compounds being evaluated were prepared, diluted, and added to microtiter plates at varied volumes to obtain a target final concentration per well upon inoculum addition. Plates were incubated at 37° C. to evaporate EtOH and sterilized in a Baker SterilGARD III Advance Biological Safety Cabinet by UV-C germicidal irradiation for 30 min (lids removed). EtOH only was added to wells designated as “no compound” positive controls (Pos. Con.) and “no bacteria” negative controls (note, controls lacking bacteria yielded no significant staining in the CV assay (data not shown)). The outer wells were never used for test samples as evaporation and significant deviations in growth were observed; thus, outer wells were filled with sterile 18 MΩ H2O to minimize these effects.
Bacterial samples for biofilm assessment were prepared by first streaking a freezer stock of P. aeruginosa PAO1 on an LB/agar plate and incubating at 37° C. for ˜16 h. Single colonies were selected and used to inoculate LB medium (10 mL) in a 25 mL Erlenmeyer flask. The culture was grown on an incubator-shaker (200 rpm) at 37° C. for ˜16 h to an OD600 of ˜1.0. Overnight cultures were gently decanted into falcon tubes to minimize transfer of biofilm produced during overnight growth. An inoculating culture was prepared by centrifuging an aliquot of overnight culture at 3,000 rpm for 10 min, removal of the supernatant, and then re-suspending the pellet in 95:5 M9+:LB at 10-fold the initial volume (effecting a 1-in-10 dilution; OD600 ˜0.1-0.2). Using a multi-channel pipette, this culture was added to test microtiter plates in 200 μL aliquots. The well contents were mixed using a 10 μL multi-channel pipette in a swirling motion; insoluble compound samples were noted and later excluded from the data set as needed.
Plates were covered with the provided lid and incubated statically at 37° C. for 12-24 h. Maximal biofilm formation is obtained at 24 h, after which the amount of biofilm declines unless fresh nutrients are provided. After incubation, the OD600 was measured, and the bacterial suspension was removed by inverting and shaking the plate over a waste pan and then taping on a paper towel (process termed “dumping”). Non-biofilm associated biomaterial was removed by adding 225 μL PBS and dumping (process termed “washing”) and then repeating this washing process. Biofilm was fixed to the microtiter plates by uncovering the plate and thermally dehydrating at 37° C. […]

[4] = 12 h incubation, CV assay, read-out: 12 h biofilm IC50
[5] = 24 h incubation, CV assay, read-out: 24 h biofilm IC50
[6] = added exogenously to solution, read-out: IC50 for biofilm inhibition
[7] = 24 h, read-out: IC50 for biofilm inhibition
[8] = Table 1, crystal violet, read-out: IC50, P. aeruginosa PAO1 biofilm inhibition

SMILES | RhlR activity [1] | inhibition of Rhl-QS system [1] | LasR activity [2] | inhibition of Las-QS system [2] | inhibition of biofilm formation ([3]; 24 h) [%] | IC50 [3, 4] [µM] | IC50 [3, 5] [µM] | IC50 [3, 6] [µM] | IC50 [3, 7] [µM] | IC50 [3, 8] [µM] | concentrations at which inhibitor (not activator) of biofilm formation ([3]; P. aeruginosa) [mM] | fold more active than parent compound 7 ([3]; biofilm inhibition IC50) [fold]
Nc1nc2ccccc2[nH]1 [Compound 7, 2-aminobenzimidazole] | significant reduction | able to inhibit | significant reduction | able to inhibit | 94 | 50.5 | 46.8 | 47 | 47 | 47 | – | –
Cc1cc2nc(N)[nH]c2cc1C [Compound 21, 5,6-Dimethyl-2-aminobenzimidazole] | significant reduction | able to inhibit | significant reduction | able to inhibit | – | 4.3 | 4 | 4 | 4 | 4 | ≤ 3.2 | ~10
